This note sets out measurements from patent publication US20240059703A1 (AMGEN INC., priority 2021, published 2024).

The target of one test is KRAS G12C (Homo sapiens (Human), UniProt P01116, C118A/G12C). Nature of the test: 2 h coupled exchange assay. Format: biochemical. The conditions noted are these: Avg 2 h Coupled exchange IC50, 2 h compound pre-incubation. The procedure: The term “2 h coupled exchange assay” or “20 h coupled exchange assay” as used herein refers to the assay described in the Section entitled “BIOLOGICAL EVALUATION.”
Sequence of KRAS G12C (P01116 other isoform, or with tags, fused parts or gaps G12C/C118A): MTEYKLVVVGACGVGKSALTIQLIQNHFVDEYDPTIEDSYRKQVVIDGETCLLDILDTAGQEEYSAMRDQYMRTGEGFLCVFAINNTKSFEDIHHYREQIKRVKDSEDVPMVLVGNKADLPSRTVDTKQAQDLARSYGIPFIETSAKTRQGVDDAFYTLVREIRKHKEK

Test [1] concerns MIA PaCa-2 (human pancreatic carcinoma) cells. Nature of the test: Cell Viability Assay (CellTiter-Glo), MIA PaCa-2. The class given is cell-based. The procedure:
(§1) Serially-diluted compound or DMSO was added to the cells, and plates were incubated at 37° C., 5% CO2 for 72 h. Cell viability was measured using a CellTiter-Glo® Luminescent Cell Viability Assay kit (Promega) according to the manufacturer's protocol. The luminescence signal of treated samples was normalized to DMSO control, and data were analyzed using a 4-parameter logistic model to calculate IC50 values.

Test [2] relates to A549 (human lung carcinoma) cells. Nature of the test: Cell Viability Assay (CellTiter-Glo), A549. Format: cell-based. The procedure: as §1, with “MIA PaCa-2 (human pancreatic carcinoma; ATCC CRL-1420) or A549 (human lung carcinoma; ATCC CCL-185) cells were cultured in RPMI 1640 medium containing 10% fetal bovine serum and 1× penicillin/streptomycin/L-glutamine. Cells were seeded in 384-well plates at a density of 1.67E+04 cells/mL and incubated at 37° C., 5% CO2, overnight. Serially-diluted” for “Serially-diluted”
(In general: Cellular ATP, detected with luciferase, serves as a proxy for viable cell number.)

[3] abbreviates: SOS-mediated nucleotide exchange.

A value given as a limit tells only on which side of the number the result lay.

Regarding `C=CC(=O)N1CC2(CCN(c3nc4c(ccn4C)c(-c4c(C)ccc5[nH]ncc45)c3C#N)C2)C1` [Example 1-50, 1-methyl-4-(5-methyl-1H-indazol-4-yl)-6-(2-(2-propenoyl)-2,6-diazaspiro[3.4]octan-6-yl)-1H-pyrrolo[2,3-b]pyridine-5-carbonitrile], the IC50 on KRAS G12C (setting [3]) was 0.498 µM; in test [1] (Homo sapiens, MIA PaCa-2, 72 h), greater than 5 µM; in test [2] (Homo sapiens, A549, 72 h) it was greater than 5 µM.

Turning to `C=CC(=O)N1CC2(CCN(c3nc4c(c(-c5ccccc5F)c3C#N)CCN(C[C@@H]3CCC(=O)N3)C4)C2)C1` [Example 21-33, 4-(2-fluorophenyl)-7-(((2S)-5-oxo-2-pyrrolidinyl)methyl)-2-(2-(2-propenoyl)-2,6-diazaspiro[3.4]octan-6-yl)-5,6,7,8-tetrahydro-1,7-naphthyridine-3-carbonitrile], the IC50 came out at 0.957 µM on KRAS G12C; 5.52 µM in test [1] (Homo sapiens, MIA PaCa-2, 72 h); 16.1 µM in test [2] (Homo sapiens, A549, 72 h).

Take `C=CC(=O)N1CC2(CCN(c3nc4c(c(-c5c(C)ccc6[nH]ncc56)c3C)CCN(C(C)C)C4)C2)C1` (single isomer, unassigned) [Example 18-19, (P)-1-(6-(3-methyl-4-(5-methyl-1H-indazol-4-yl)-7-(2-propanyl)-5,6,7,8-tetrahydro-1,7-naphthyridin-2-yl)-2,6-diazaspiro[3.4]octan-2-yl)-2-propane-1-one]: the IC50 at KRAS G12C was 0.131 µM; in test [1] (72 h), 0.056 µM; in test [2] (Homo sapiens, A549, 72 h) it was greater than 25 µM.

Consider `C=CC(=O)N1CC2(CCN(c3nc4c(c(-c5cc(O)ccc5F)c3C)CCN(c3scnc3C)C4)C2)C1` [Example 18-13, 1-(6-(4-(2-fluoro-5-hydroxyphenyl)-3-methyl-7-(4-methyl-1,3-thiazol-5-yl)-5,6,7,8-tetrahydro-1,7-naphthyridin-2-yl)-2,6-diazaspiro[3.4]octan-2-yl)-2-propen-1-one], for which the IC50 against KRAS G12C was 0.086 µM; in test [1] (Homo sapiens, MIA PaCa-2, 72 h), 0.089 µM; in test [2] (Homo sapiens, A549, 72 h) it was greater than 5 µM.

For the compound `C=CC(=O)N1CC2(CCN(c3cn4ccnc4c(-c4c(C)ccc5[nH]ncc45)c3C#N)C2)C1` [Example 1-5], the IC50 was 0.52 µM against KRAS G12C (setting [3]); 1.63 µM in test [1] (Homo sapiens, MIA PaCa-2, 72 h); 50 µM in test [2] (Homo sapiens, A549, 72 h).

In the case of `C=CC(=O)N1CC2(CCN(c3cc4c(c(-c5c(C)c(Cl)cc6cnn(C)c56)c3C#N)OCCC4)C2)C1` [Example 2-104, 8-(5-chloro-1,6-dimethyl-1H-indazol-7-yl)-6-(2-(2-propenoyl)-2,6-diazaspiro[3.4]octan-6-yl)-3,4-dihydro-2H-chromene-7-carbonitrile], the IC50 against KRAS G12C (setting [3]) is 0.018 µM; in test [1] (Homo sapiens, MIA PaCa-2, 72 h), 0.003 µM; in test [2] (Homo sapiens, A549, 72 h), greater than 5 µM.

In the case of `C=CC(=O)N1CC2(CCN(c3nc4c(c(-c5ccccc5F)c3C#N)CCN(c3scnc3C)C4)C2)C1` [Example 21-1, 4-(2-fluorophenyl)-7-(4-methyl-1,3-thiazol-5-yl)-2-(2-(2-propenoyl)-2,6-diazaspiro[3.4]octan-6-yl)-5,6,7,8-tetrahydro-1,7-naphthyridine-3-carbonitrile], the IC50 against KRAS G12C was 0.041 µM; in test [1] (Homo sapiens, MIA PaCa-2, 72 h), 0.327 µM; in test [2] (Homo sapiens, A549, 72 h), greater than 5 µM.

With `C=CC(=O)N1CC2(CCN(c3nc4c(c(-c5cc(O)ccc5Cl)c3C#N)CCN(c3scnc3C)C4)C2)C1` (single isomer, unassigned) [Example 21-24, (P)-4-(2-chloro-5-hydroxyphenyl)-7-(4-methyl-1,3-thiazol-5-yl)-2-(2-(2-propenoyl)-2,6-diazaspiro[3.4]octan-6-yl)-5,6,7,8-tetrahydro-1,7-naphthyridine-3-carbonitrile], the IC50 on KRAS G12C was 0.018 µM; in test [1] (72 h) it was 0.297 µM; in test [2] (72 h) it was greater than 5 µM.

Consider `C=CC(=O)N1CC2(CCN(c3cc4c(c(-c5cc(O)cc6ccccc56)c3C#N)OCCC4)C2)C1` (single isomer, unassigned) [Example 2-54, (M)-8-(3-hydroxy-1-naphthalenyl)-6-(2-(2-propenoyl)-2,6-diazaspiro[3.4]octan-6-yl)-3,4-dihydro-2H-chromene-7-carbonitrile], for which the IC50 is 0.028 µM at KRAS G12C (setting [3]); 0.056 µM in test [1] (Homo sapiens, MIA PaCa-2, 72 h); greater than 5 µM in test [2] (Homo sapiens, A549, 72 h).

In the case of `C=CC(=O)N1CC2(CCN(c3nc4c(F)cccc4c(-c4c(C)ccc5[nH]ncc45)c3C#N)C2CF)C1` (stereo not drawn) [Example 1-49, 8-fluoro-2-(5-(fluoromethyl)-2-(2-propenoyl)-2,6-diazaspiro[3.4]octan-6-yl)-4-(5-methyl-1H-indazol-4-yl)-3-quinolinecarbonitrile], the IC50 is 0.124 µM on KRAS G12C (setting [3]); 24.6 µM in test [1] (Homo sapiens, MIA PaCa-2, 72 h); 13.4 µM in test [2] (Homo sapiens, A549, 72 h).

`C=CC(=O)N1CC2(CCN(c3cc4c(ncn4C)c(-c4c(C)ccc5[nH]ncc45)c3C#N)C2)C1` [Example 7, 1-methyl-4-(5-methyl-1H-indazol-4-yl)-6-(2-(2-propenoyl)-2,6-diazaspiro[3.4]octan-6-yl)-1H-benzimidazole-5-carbonitrile]: the IC50 is 0.879 µM against KRAS G12C (setting [3]); 3.42 µM in test [1] (Homo sapiens, MIA PaCa-2, 72 h); greater than 5 µM in test [2] (Homo sapiens, A549, 72 h).

For `C=CC(=O)N1CC2(CCN(c3nc4c(c(-c5cc(O)ccc5C)c3C)COC(C)(C)C4)C2)C1` (single isomer, unassigned) [Example 14-31, (M)-1-(6-(4-(5-hydroxy-2-methylphenyl)-3,7,7-trimethyl-7,8-dihydro-5H-pyrano[4,3-b]pyridin-2-yl)-2,6-diazaspiro[3.4]octan-2-yl)-2-propen-1-one], the IC50 against KRAS G12C was 0.106 µM; in test [1] (Homo sapiens, MIA PaCa-2, 72 h), 0.105 µM; in test [2] (Homo sapiens, A549, 72 h), greater than 5 µM.

As to `C=CC(=O)N1CC2(CCN(c3nc4c(c(-c5ccc(F)cc5F)c3C#N)CCC(c3scnc3C)=C4)C2)C1` [Example 23-21, 4-(2,4-difluorophenyl)-7-(4-methyl-1,3-thiazol-5-yl)-2-(2-(2-propenoyl)-2,6-diazaspiro[3.4]octan-6-yl)-5,6-dihydro-3-quinolinecarbonitrile], the IC50 on KRAS G12C is 0.074 µM; in test [1] (Homo sapiens, MIA PaCa-2, 72 h), 0.714 µM; in test [2] (Homo sapiens, A549, 72 h), 3.78 µM.

For `C=CC(=O)N1CC2(CCN(c3nc4c(c(-c5ccc(F)cc5F)c3C#N)CCN(C(C)C)C4)C2)C1` [Example 21-27, 4-(2,4-difluorophenyl)-7-(2-propanyl)-2-(2-(2-propenoyl)-2,6-diazaspiro[3.4]octan-6-yl)-5,6,7,8-tetrahydro-1,7-naphthyridine-3-carbonitrile], the IC50 against KRAS G12C worked out at 0.918 µM; in test [1] (Homo sapiens, MIA PaCa-2, 72 h), 2.99 µM; in test [2] (Homo sapiens, A549, 72 h) it was 16.5 µM.

On to `C=CC(=O)N1CC2(CCN(c3nc4c(c(-c5ccccc5F)c3C#N)CCN(c3ccncc3C)C4)C2)C1` [Example 21-21, 4-(2-fluorophenyl)-7-(3-methyl-4-pyridinyl)-2-(2-(2-propenoyl)-2,6-diazaspiro[3.4]octan-6-yl)-5,6,7,8-tetrahydro-1,7-naphthyridine-3-carbonitrile], for which the IC50 against KRAS G12C is 0.442 µM; in test [1] (Homo sapiens, MIA PaCa-2, 72 h), greater than 5 µM; in test [2] (Homo sapiens, A549, 72 h), greater than 5 µM.

As to `C=CC(=O)N1CC2(CCN(c3nc4c(c(-c5c(C)ccc6[nH]ncc56)c3Cl)COC(C)(C)C4)C2)C1` [Example 2-83, 1-(6-(3-chloro-7,7-dimethyl-4-(5-methyl-1H-indazol-4-yl)-7,8-dihydro-5H-pyrano[4,3-b]pyridin-2-yl)-2,6-diazaspiro[3.4]octan-2-yl)-2-propen-1-one], the IC50 is 0.033 µM at KRAS G12C (setting [3]); 0.017 µM in test [1] (Homo sapiens, MIA PaCa-2, 72 h); 12.2 µM in test [2] (Homo sapiens, A549, 72 h).

Consider `C=CC(=O)N1CC2(C1)CN(c1nc3c(F)cccc3c(-c3c(C)ccc4[nH]ncc34)c1C#N)CC2(F)F` [Example 1-39, 2-(8,8-difluoro-2-(2-propenoyl)-2,6-diazaspiro[3.4]octan-6-yl)-8-fluoro-4-(5-methyl-1H-indazol-4-yl)-3-quinolinecarbonitrile], for which the IC50 against KRAS G12C (setting [3]) amounted to 0.757 µM; in test [1] (Homo sapiens, MIA PaCa-2, 72 h), 2.75 µM; in test [2] (Homo sapiens, A549, 72 h) it was 6.25 µM.

Turning to `C#CC(=O)N1CC2(CCN(c3nc4c(F)cccc4c(-c4c(C)ccc5[nH]ncc45)c3C#N)C2)C1` [Example 1-14, 8-fluoro-4-(5-methyl-1H-indazol-4-yl)-2-(2-(2-propynoyl)-2,6-diazaspiro[3.4]octan-6-yl)-3-quinolinecarbonitrile], the IC50 against KRAS G12C (setting [3]) came out at 0.327 µM; in test [1] (Homo sapiens, MIA PaCa-2, 72 h) it was 0.069 µM; in test [2] (Homo sapiens, A549, 72 h) it was 1.09 µM.

Consider `C=CC(=O)N1CC2(CCN(c3nc4c(c(-c5cc(O)ccc5C)c3C#N)C[C@H]3C[C@@H]4C3)C2)C1` [Example 13-113, (1S,9S)-6-(5-hydroxy-2-methylphenyl)-4-(2-(2-propenoyl)-2,6-diazaspiro[3.4]octan-6-yl)-3-azatricyclo[7.1.1.0^2,7]undeca-2,4,6-triene-5-carbonitrile], for which the IC50 on KRAS G12C (setting [3]) was 0.071 µM; in test [1] (Homo sapiens, MIA PaCa-2, 72 h), greater than 5 µM; in test [2] (Homo sapiens, A549, 72 h) it was greater than 5 µM.

In the case of `C=CC(=O)N1CC2(CCN(c3nc4c(c(-c5cc(O)ccc5Cl)c3C#N)C[C@H]3C[C@@H]4C3(C)C)C2)C1` [Example 2-64, (1R,9R)-6-(2-chloro-5-hydroxyphenyl)-10,10-dimethyl-4-(2-(2-propenoyl)-2,6-diazaspiro[3.4]octan-6-yl)-3-azatricyclo[7.1.1.0^2,7]undeca-2,4,6-triene-5-carbonitrile], the IC50 was 0.039 µM against KRAS G12C (setting [3]); 0.432 µM in test [1] (Homo sapiens, MIA PaCa-2, 72 h); greater than 5 µM in test [2] (Homo sapiens, A549, 72 h).

By IC50 is commonly meant the concentration that inhibits the measured activity by half. A higher IC50 goes with weaker potency in that assay.
